System: P12-Ichikawa
Experiment: cell viability relative to DMSO control; higher = less cytotoxic
Conditions: 48 h
In short: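 Library compounds in DMSO were pin-dosed into 1536-well plates (5 μl) holding NOMO1 or SEM (500 cells/well) or P12-Ichikawa (1000 cells/well) leukemia cells, across an 11-point threefold series of 47 μM to 0.79 nM. Each cell line had been adapted for at least four passages in each medium. CellTiter-Glo One luminescence was read after 48 h at 37°C. Viability is the per-plate percentage relative to DMSO wells, with cell-free wells as background.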

[1] = HPLM + 10% dialyzed FBS, 0.000781 µM
[2] = HPLM + 10% dialyzed FBS, 0.00234 µM
[3] = HPLM + 10% dialyzed FBS, 0.00702 µM
[4] = HPLM + 10% dialyzed FBS, 0.0211 µM
[5] = HPLM + 10% dialyzed FBS, 0.0632 µM
[6] = HPLM + 10% dialyzed FBS, 0.19 µM
[7] = HPLM + 10% dialyzed FBS, 0.569 µM
[8] = HPLM + 10% dialyzed FBS, 1.71 µM
[9] = HPLM + 10% dialyzed FBS, 5.12 µM
[10] = HPLM + 10% dialyzed FBS, 15.4 µM
[11] = HPLM + 10% dialyzed FBS, 46.1 µM
[12] = RPMI 5 mM glucose + 10% FBS, 0.000781 µM
[13] = RPMI 5 mM glucose + 10% FBS, 0.00234 µM
[14] = RPMI 5 mM glucose + 10% FBS, 0.00702 µM
[15] = RPMI 5 mM glucose + 10% FBS, 0.0211 µM
[16] = RPMI 5 mM glucose + 10% FBS, 0.0632 µM
[17] = RPMI 5 mM glucose + 10% FBS, 0.19 µM
[18] = RPMI 5 mM glucose + 10% FBS, 0.569 µM
[19] = RPMI 5 mM glucose + 10% FBS, 1.71 µM
[20] = RPMI 5 mM glucose + 10% FBS, 5.12 µM
[21] = RPMI 5 mM glucose + 10% FBS, 15.4 µM
[22] = RPMI 5 mM glucose + 10% FBS, 46.1 µM
[23] = RPMI 5 mM glucose + 10% dialyzed FBS, 0.000781 µM
[24] = RPMI 5 mM glucose + 10% dialyzed FBS, 0.00234 µM
[25] = RPMI 5 mM glucose + 10% dialyzed FBS, 0.00702 µM
[26] = RPMI 5 mM glucose + 10% dialyzed FBS, 0.0211 µM
[27] = RPMI 5 mM glucose + 10% dialyzed FBS, 0.0632 µM
[28] = RPMI 5 mM glucose + 10% dialyzed FBS, 0.19 µM
[29] = RPMI 5 mM glucose + 10% dialyzed FBS, 0.569 µM
[30] = RPMI 5 mM glucose + 10% dialyzed FBS, 1.71 µM
[31] = RPMI 5 mM glucose + 10% dialyzed FBS, 5.12 µM
[32] = RPMI 5 mM glucose + 10% dialyzed FBS, 15.4 µM
[33] = RPMI 5 mM glucose + 10% dialyzed FBS, 46.1 µM

Structure (SMILES)	cell viability [1] [%]	cell viability [2] [%]	cell viability [3] [%]	cell viability [4] [%]	cell viability [5] [%]	cell viability [6] [%]	cell viability [7] [%]	cell viability [8] [%]	cell viability [9] [%]	cell viability [10] [%]	cell viability [11] [%]	cell viability [12] [%]	cell viability [13] [%]	cell viability [14] [%]	cell viability [15] [%]	cell viability [16] [%]	cell viability [17] [%]	cell viability [18] [%]	cell viability [19] [%]	cell viability [20] [%]	cell viability [21] [%]	cell viability [22] [%]	cell viability [23] [%]	cell viability [24] [%]	cell viability [25] [%]	cell viability [26] [%]	cell viability [27] [%]	cell viability [28] [%]	cell viability [29] [%]	cell viability [30] [%]	cell viability [31] [%]	cell viability [32] [%]	cell viability [33] [%]
C[C@]12CCC3c4ccc(O)cc4CCC3C1CCC2=O (stereo partly specified)	92	95.3	101	98.9	102	97.9	84.6	94	90.2	73.7	83.9	88.2	95.4	96.8	103	102	100	98.8	95.5	87.4	72.6	83.9	86.9	93.6	86.2	87	87.7	88.4	97.9	80.7	72.8	54.4	66.4
COc1cc2c(cc1OC)[C@@H]1Cc3ccc(OC)c(OC)c3CN1CC2	110	114	114	113	118	117	112	106	112	99.1	94.5	–	–	–	–	–	–	–	–	–	–	–	111	117	119	109	110	110	124	117	109	97.2	80.3
CNC(=O)c1ccc2c(c1)NC(=O)/C2=C(\Nc1cccc(CN(C)C)c1)c1ccccc1	92.9	97.2	98.5	99.8	100	101	98.9	89.1	35.8	87.6	0.763	87.3	98.2	97.3	105	102	101	103	92.5	36.5	83.5	1.21	86.4	95.6	108	101	102	101	103	97.5	35.6	81.8	1.03
O=C(c1cncc(Br)c1)N1CCC(N2CCCC2)CC1	107	97.4	106	103	105	99.9	100	101	100	95.1	89.9	93.6	99.7	100	95.9	98.2	96.7	100	94	103	92.5	90.3	95.9	102	99.6	99.6	95.2	95.1	96.7	100	92	87.1	92
